# Data: PubChem BioAssay (NCI)
# “And” between values parts separate entries of the source, which are not always exact repeats. Equal entries are not always repeated.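 Five concentrations, 48 hours, 96-well plates. At the GI50, growth is halved. The concentration for full growth arrest is given as TGI.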
# What was measured:
# Assay in all cases: NCI-60 cell line screen, 48 h
# [1] = test system: ACHN renal
# [2] = test system: HOP-62 NSCLC
# [3] = test system: LOX IMVI melanoma
# [4] = test system: MCF7 breast
# [5] = test system: MOLT-4 leukemia
# [6] = test system: NCI-H460 lung
# [7] = test system: NCI/ADR-RES ovarian
# [8] = test system: SN12C renal
# [9] = test system: SNB-75 CNS
# [10] = test system: U251 CNS
Structure (SMILES),GI50 [1],TGI [1],GI50 [2],TGI [2],GI50 [3],TGI [3],GI50 [4],TGI [4],GI50 [5],TGI [5],GI50 [6],TGI [6],GI50 [7],TGI [7],GI50 [8],TGI [8],GI50 [9] [µM],TGI [9],GI50 [10],TGI [10]
COc1cc(OC)c2cc(C(=O)O)c(=O)oc2c1,> 100 µM,> 100 µM,> 100 µM,> 100 µM,> 100 µM,> 100 µM,> 100 µM,> 100 µM,> 100 µM,> 100 µM,> 100 µM,> 100 µM,> 100 µM,> 100 µM,> 100 µM,> 100 µM,> 100,> 100 µM,> 100 µM,> 100 µM
CO/N=C(\COc1ccc2c(c1)oc(=O)c1cc(OC)ccc12)c1ccc(F)cc1,16.8 µM,32.1 µM,16.4 µM,34.1 µM,26 µM,72.9 µM,34.7 µM,> 100 µM,36.6 µM,> 100 µM,23.8 µM,> 100 µM,17.6 µM,35.6 µM,27.2 µM,> 100 µM,13.4,27.1 µM,20.3 µM,40.4 µM
COc1cc(/C=C/C(=O)C(C(=O)/C=C/c2ccc(OC(=O)CCNc3nnc(C)s3)c(OC)c2)C(=O)CCNc2nnc(C)s2)ccc1OC(=O)CCNc1nnc(C)s1,2.28 µM,5.22 µM,5.02 µM,> 31.8 µM,1.89 µM,3.84 µM,2.16 µM,12.6 µM,1.64 µM,3.89 µM,2.2 µM,4.7 µM,3.87 µM,> 38.8 µM,2.49 µM,10.2 µM,6.19,34.5 µM,2.48 µM,7.35 µM
CC1CC(C)/C(=N/NC(N)=O)C(C(O)CC2CCC(=O)NC2=O)C1 (stereo unspecified),1.32 µM,> 100 µM,2.99 µM,> 100 µM,2.48 µM,> 100 µM,3.92 µM,> 100 µM,4.09 µM,> 100 µM,4 µM,> 100 µM,3.66 µM,> 100 µM,1.99 µM,> 100 µM,4.26,> 100 µM,1.96 µM,91.1 µM
CC(C)=CC(O)C/C(C)=C/CC/C(C)=C/CCC1(C)C(CCCO)/C(=C(/C)C=O)CCC1(C)O (stereo unspecified),,43.6 µM,,88.6 µM,,> 100 µM,,79.2 µM,,83.2 µM,,> 100 µM,,> 100 µM,,76.2 µM,,> 100 µM,,> 100 µM
O=C(Nc1ccc(Cl)cc1)c1ccc([N+](=O)[O-])o1,1.95 µM,4.07 µM,1.49 µM,3.27 µM,1.34 µM,2.97 µM,1.52 µM,4.19 µM,7.19 µM,> 100 µM,2.22 µM,5.55 µM,2.55 µM,11.4 µM,1.68 µM,4.12 µM,1.63,5.38 µM,1.36 µM,2.87 µM
NC(N)=N/N=C(/c1ccccc1)c1ccc(Cl)cc1,40.6 µM,> 100 µM,30.4 µM,> 100 µM,18.4 µM,> 100 µM,3.69 µM,> 100 µM,5.45 µM,> 100 µM,9.93 µM,44 µM,24.4 µM,85.9 µM,27.4 µM,> 100 µM,6.17,70.2 µM,9.4 µM,> 100 µM
Nc1nc(Cl)c(N=Nc2ccc(Cl)cc2)c(NCC2(CO)CC(OCc3ccccc3)C2)n1 (stereo unspecified),2.6 µM,20.3 µM and 3.55 µM and 3.47 µM,,49.4 µM and > 100 µM and 22.5 µM,2.04 µM and 18.1 µM and 2.72 µM,20.7 µM and > 100 µM and 11.3 µM,3.9 µM and 31.3 µM and 7.84 µM,14.2 µM and > 100 µM and 22.6 µM,3.39 µM and 9.61 µM and 3.56 µM,38.6 µM and > 100 µM and > 48.4 µM,7.43 µM and 29.4 µM and 3.85 µM,86.1 µM and > 100 µM and 17.7 µM,6.55 µM and 9.08 µM and 3.98 µM,77.8 µM and > 100 µM and 16.2 µM,,16.9 µM and > 100 µM and 22 µM,4.55,26.8 µM and > 29.1 µM and 25.5 µM,,28.5 µM and > 100 µM and 36 µM
CCOCC(=O)N[C@H]1CCc2cc(OC(=O)COCC)c(OC)c(OC)c2-c2ccc(SC)c(=O)cc21,0.0831 µM,> 100 µM,,> 100 µM,,> 100 µM,,> 100 µM,0.034 µM,> 100 µM,0.0395 µM,,,5.49 µM,0.0554 µM,> 100 µM,,> 100 µM,0.0154 µM,
COc1cc(C2CC(c3ccc(Nc4ccnc5cc(Cl)ccc45)cc3)=NN2C=O)cc(OC)c1OC (stereo unspecified),3.24 µM,10.6 µM,4.13 µM,20.8 µM,1.89 µM,3.85 µM,3.23 µM,> 100 µM,3.36 µM,9.21 µM,4.42 µM,> 100 µM,7.88 µM,> 100 µM,4.37 µM,42.4 µM,5.19,32.5 µM,2.06 µM,4.76 µM
Cc1nc(N)sc1N=Nc1cc(Cl)c([N+](=O)[O-])cc1Cl,,55.9 µM,,65 µM,,36.8 µM,,68.8 µM,,22.4 µM,,86.7 µM,,70.4 µM,,56.1 µM,,30.5 µM,,44.7 µM
C/C1=C\CC[C@@]2(C)O[C@@H]2C[C@@H]2[C@H](C/C(C)=C/CC1)OC(=O)C21CCN=N1 (stereo partly specified),> 100 µM,75 µM and > 100 µM,> 100 µM,75 µM and > 100 µM,,75 µM,> 100 µM,> 100 µM,> 100 µM,75 µM and > 100 µM,> 100 µM,75 µM and > 100 µM,> 100 µM,> 100 µM,> 100 µM,75 µM and > 100 µM,> 100,75 µM and > 100 µM,> 100 µM,> 100 µM
O[C@@H]1CCCN1Cc1cc2cc3c(cc2c2cc(OCc4ccccc4)ccc12)OCO3,8.37 µM,22 µM,5.78 µM,18.9 µM,1.8 µM,3.44 µM,2.15 µM,5.07 µM,3.38 µM,14.1 µM,2.6 µM,7.38 µM,6.12 µM,21.7 µM,3.6 µM,20.3 µM,5.92,19.7 µM,3.58 µM,14.8 µM
O=C1/C(=C/c2ccc(Cl)cc2)CN(Cc2cn(CCNc3ccnc4cc(Cl)ccc34)nn2)C/C1=C\c1ccc(Cl)cc1,0.391 µM,1.21 µM,0.272 µM,0.729 µM,0.189 µM,0.35 µM,0.376 µM,1.37 µM,0.499 µM,> 100 µM,0.247 µM,0.602 µM,0.406 µM,2.24 µM,1.08 µM,3.38 µM,1.22,2.63 µM,0.185 µM,0.391 µM
N#CCC12CC=CCC1=C(O)C(=O)c1ccc(O)cc12 (stereo unspecified),,> 100 µM,,> 100 µM,,> 100 µM,,> 100 µM,,> 100 µM,,> 100 µM,,> 100 µM,,> 100 µM,,> 100 µM,,> 100 µM
O=C(NCC(=O)N1CC[C@H](NC2CCC(O)(c3ccc(-c4ncccn4)cn3)CC2)C1)c1cccc(C(F)(F)F)c1 (stereo partly specified),> 100 µM,> 100 µM,95.1 µM,> 100 µM,32.3 µM,> 100 µM,41.8 µM,> 100 µM,39.8 µM,> 100 µM,86.5 µM,> 100 µM,> 100 µM,> 100 µM,> 100 µM,> 100 µM,20.2,> 100 µM,91.8 µM,> 100 µM
Cc1ccc(NSc2ccccc2[N+](=O)[O-])cc1,2.3 µM,23.4 µM,0.283 µM,18.8 µM,0.912 µM,18.5 µM,0.133 µM,16.2 µM,0.208 µM,> 62.7 µM,0.432 µM,11.1 µM,0.148 µM,14.3 µM,1.3 µM,21.1 µM,0.557,9.32 µM,0.768 µM,16.3 µM
O=c1[nH]ccc2nc(-c3ccc(CN4CCC(c5nc(-c6ccccn6)n[nH]5)CC4)cc3)c(-c3ccccc3)cc12,21.2 µM,> 100 µM,27.8 µM,> 100 µM,19.3 µM,> 94.2 µM,0.282 µM,33.2 µM,0.364 µM,4.67 µM,1.15 µM,> 100 µM,36.7 µM,> 100 µM,32.1 µM,> 100 µM,0.0534,7.75 µM,13.2 µM,> 66.6 µM
COc1cc(Nc2ncc3c(C)nc(-c4cccc(Oc5ccccc5)c4)n3n2)cc(OC)c1OC,1.33 µM,17.9 µM,10.6 µM,> 25 µM,3.57 µM,> 15.5 µM,7.18 µM,> 24.1 µM,7.46 µM,> 21.3 µM,3.21 µM,> 25 µM,6.36 µM,> 25 µM,5.32 µM,> 21.6 µM,5.14,> 25 µM,6.51 µM,> 25 µM
O=C1Nc2ccccc2/C1=C/c1ccccc1,,> 100 µM,,38.5 µM,,27.6 µM,,23.7 µM,,57.5 µM,,38.5 µM,,70.6 µM,,28.5 µM,,33.8 µM,,30 µM
CC(C)=CCc1ccc(O)c(=O)cc1C(C)C,0.484 µM,> 100 µM,0.685 µM,> 100 µM,0.327 µM,> 22.9 µM,0.501 µM,> 100 µM,0.394 µM,> 100 µM,0.42 µM,> 33.1 µM,0.336 µM,2.74 µM,0.844 µM,> 100 µM,2.88,> 100 µM,0.472 µM,> 100 µM
O=C1CSC(=S)N1Cc1cccnc1,6.14 µM,19.5 µM,47 µM,> 100 µM,2.58 µM,12.5 µM,2.43 µM,12.8 µM,11.6 µM,> 100 µM,18.4 µM,48.7 µM,24 µM,> 100 µM,14.5 µM,29.2 µM,16.2,72.5 µM,23.5 µM,61.5 µM
O=C(CC(O)c1ccncc1)c1ccccc1 (stereo unspecified),25.9 µM,> 100 µM,31.7 µM,> 100 µM,20.9 µM,49.5 µM,24.7 µM,> 100 µM,22.2 µM,79.4 µM,27.1 µM,89.2 µM,29.8 µM,> 100 µM,29.8 µM,> 100 µM,17.8,> 100 µM,28.6 µM,> 100 µM
COc1ccc(N(C)c2nc(Cl)nc3ccn(C)c23)cc1,< 0.01 µM,> 100 µM,< 0.01 µM,> 100 µM,< 0.01 µM,> 100 µM,< 0.01 µM,> 100 µM,< 0.01 µM,> 100 µM,< 0.01 µM,> 100 µM,< 0.01 µM,> 100 µM,< 0.01 µM,> 100 µM,< 0.01,> 100 µM,< 0.01 µM,> 100 µM
CS(=O)(=O)Nc1cccc(-c2ccc3c(NC(=O)C4CC4)n[nH]c3c2)c1,12.7 µM,> 25 µM,1.16 µM,> 21.5 µM,1.82 µM,> 25 µM,0.794 µM,> 9.93 µM,6.27 µM,> 25 µM,7.76 µM,> 25 µM,6.45 µM,> 25 µM,5.25 µM,> 25 µM,4.6,> 25 µM,1.49 µM,> 25 µM
Cc1[nH]n(-c2ccc(S(=O)(=O)O)cc2)c(=O)c1N=Nc1ccccc1,,> 100 µM,,> 100 µM,,> 100 µM,,> 100 µM,,> 100 µM,,> 100 µM,,> 100 µM,,> 100 µM,,> 100 µM,,> 100 µM
c1ccc2c(Nc3ccc(Oc4ccc(Nc5c6ccccc6nc6ccccc56)cc4)cc3)c3ccccc3nc2c1,0.0309 µM and 0.133 µM,0.101 µM and 0.26 µM,0.301 µM and 1.74 µM,1.09 µM and 3.12 µM,0.0148 µM,,0.176 µM,,0.186 µM,0.843 µM,0.346 µM,1.38 µM and 5.93 µM,,0.156 µM,0.213 µM and 0.375 µM,0.651 µM and 1.69 µM,1.59,3.98 µM and 1.45 µM,0.0212 µM and 0.145 µM,0.0762 µM and 0.276 µM
